Several values for one entry are separate records, joined by “and”; a condition that tells them apart may be missing. Equal values may be shown once. Where a name gives a salt, the structure may show the parent alone.
Biological target: T1, recombinant human LTA4 hydrolase (rhLTA4H) (Homo sapiens, UniProt P09960)
T1 sequence (P09960 1-611): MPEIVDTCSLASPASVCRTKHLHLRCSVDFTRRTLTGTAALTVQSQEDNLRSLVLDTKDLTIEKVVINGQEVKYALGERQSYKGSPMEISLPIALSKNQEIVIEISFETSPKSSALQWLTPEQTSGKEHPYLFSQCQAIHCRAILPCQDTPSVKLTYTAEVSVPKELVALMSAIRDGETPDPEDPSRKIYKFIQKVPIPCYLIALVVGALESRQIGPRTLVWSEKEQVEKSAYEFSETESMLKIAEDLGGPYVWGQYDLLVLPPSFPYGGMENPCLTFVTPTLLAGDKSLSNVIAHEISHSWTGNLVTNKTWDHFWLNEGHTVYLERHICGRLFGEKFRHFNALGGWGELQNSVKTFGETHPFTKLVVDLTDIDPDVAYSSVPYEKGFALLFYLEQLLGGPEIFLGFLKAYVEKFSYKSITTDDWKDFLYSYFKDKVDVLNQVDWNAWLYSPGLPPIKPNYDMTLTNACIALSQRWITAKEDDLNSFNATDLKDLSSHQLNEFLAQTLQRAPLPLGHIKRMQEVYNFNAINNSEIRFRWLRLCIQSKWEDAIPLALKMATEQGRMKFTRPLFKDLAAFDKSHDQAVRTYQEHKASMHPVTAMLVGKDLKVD
Assay: Recombinant human LTA4 hydrolase assay for LTA4 hydrolase inhibitor activity
Details: for IC50: Recombinant Human LTA4 Hydrolase Assay IC50 LTA4H, recombinant hLTA4H; for inhibition at 3 µM: read-out: Recombinant Human LTA4 Hydrolase Assay, % at 3 μM; for inhibition at 100 µM: read-out: Recombinant Human LTA4 Hydrolase Assay, % at 100 μM
Procedure: One or more predetermined amounts of a compound of the invention were incubated in assay buffer (0.1 M potassium phosphate, 5 mg/ml fatty acid free BSA, 10% DMSO, pH 7.4) for 10 minutes at room temperature with 250 ng of recombinant hLTA4H to allow binding, if any, between the enzyme and inhibitor. The stock enzyme solution was 1 mg/ml LTA4 hydrolase, 50 mM Tris, pH 8.0, 150 mM NaCl, 2.5 mM beta-mercaptoethanol, 50% glycerol. […] Each reaction was carried out at room temperature for 10 minutes. The reaction was stopped by diluting 25 μl of the reaction mixture with 500 μl of the assay buffer without DMSO. LTB4 was quantified in the diluted sample by a commercially available enzyme-linked immunoassay [Caymen Chemical Co., Ann Arbor, Mich.] using the method recommended in the manufacturer's instructions and compared to the amount of LTB4 produced in a negative control (i.e., essentially identical conditions except without addition of an inhibitor compound). The IC50 was routinely calculated from the data produced.

Row | IC50 | SMILES | other results
1 | 11 nM | c1ccc(Cc2ccc(OCCn3ccc4ncnc-4c3)cc2)cc1 [340 A] | 
2 | 5700 nM | c1ccc(Cc2ccc(OCCCn3cnc4cccnc43)cc2)cc1 [341 A] | 
3 | 19000 nM | c1ccc(Oc2ccc(OCCCn3cnc4cccnc43)cc2)cc1 [350 A] | 
4 | 100000 nM | c1ccc(Cc2ccc3c(c2)CC(Cn2cnc4cccnc42)O3)cc1 (stereo not shown) [359 A] | 
5 | 3500 nM | c1ccc(Cc2ccc3c(c2)CC(Cn2cccc4ncnc2-4)O3)cc1 (stereo not shown) [359 C] | 
6 | 3000 nM | Clc1cc(OCCN2CCCC2)ccc1Cc1ccccc1 [Example 114] | 
7 | 4000 nM | Fc1cc(Cc2ccccc2)cc(F)c1OCCN1CCCC1 [Example 119] | 
8 | 8000 nM | Fc1cc(OCCN2CCCC2)c(F)cc1Cc1ccccc1 [Example 120] | 
9 | 25000 nM | COc1cc(Cc2ccccc2)ccc1OCCN1CCCC1 [Example 124] | 
10 | 16000 nM | COc1ccccc1Cc1ccc(OCCN2CCCC2)cc1 [Example 129] | 
11 | 13 nM | Fc1ccccc1Cc1ccc(OCCN2CCCC2)cc1 [Example 141] | 
12 | 56 nM | Clc1cccc(Cc2ccc(OCCN3CCCC3)cc2)c1 [Example 143] | 
13 | 900 nM | Fc1ccc(COc2ccc(OCCN3CCCC3)cc2)cc1 [Example 205] | 
14 | 220 nM | Fc1ccccc1COc1ccc(OCCN2CCCC2)cc1 [Example 207] | 
15 | 1300 nM | COc1ccc(COc2ccc(OCCN3CCCC3)cc2)cc1 [Example 213] | 
16 | 8000 nM | NC(=O)C1CCN(CCOc2ccc(Cc3ccc(Cl)cc3)cc2)CC1 [Example 234] | 
17 | 20000 nM | NC(=O)C1CCN(CCOc2ccc(Cc3cccnc3)cc2)CC1 [Example 236] | 
18 | 7000 nM | c1ccc(Cc2ccc(OCCN3CCC4(CC3)OCCO4)cc2)cc1 [Example 246] | 
19 | 3200 nM | CCOC(=O)CCNC(=O)C1CCN(CCOc2ccc(Cc3ccccc3)cc2)CC1 [Example 249] | 
20 | 50000 nM | CCOC(=O)C1CCCN(CCOc2ccc(Cc3ccccc3)cc2)C1 (stereo not shown) [Example 270] | 
21 | 43 nM | c1ccc(Oc2ccc3c(c2)CC(CN2CCCC2)O3)cc1 (stereo not shown) [Example 289] | 
22 | 25000 nM | CCOC(=O)C1CCN(CCOc2ccc(Cc3ccsc3)cc2)CC1 [Example 313] | 
23 | 2500 nM and 4200 nM | COC(=O)CNCCCOc1ccc(Cc2ccccc2)cc1 [Example 318] | 
24 | 970 nM | c1ccc(Cc2ccc(OCCn3ccc4ncccc43)cc2)cc1 [Example 342] | 
25 | 120 nM | c1ccc(Cc2ccc(OCCn3ccnc3)cc2)cc1 [Example 352] | 
26 | 750 nM | CC(CN1CCCCC1)Oc1ccc(Cc2ccccc2)cc1 (stereo not shown) [Example 403] | 

More lines, now with the values behind:

Row | SMILES | IC50 | other results
27 | CCOC(=O)[C@@H]1CCN(CCOc2ccc(Cc3ccccc3)cc2)[C@H](C)C1 (relative stereo) [Example 298] | 2500 nM | 
28 | c1ccc(COc2ccc(OCCn3cnc4cccnc43)cc2)cc1 [346 A] |  | inhibition at 3 µM: 31%
29 | c1ccc(COc2ccc(OCCn3cccc4ncnc3-4)cc2)cc1 [346 C] | 2200 nM | 
30 | c1ccc(Oc2ccc(OCCCn3cnc4ccncc43)cc2)cc1 [351 A] | 1080 nM | 
31 | Fc1ccc(Oc2ccc(OCCn3cnc4cccnc43)cc2)cc1 [354 A] |  | inhibition at 3 µM: 51%
32 | c1ccc(Cc2ccc(OCCn3cnc4cncnc43)cc2)cc1 [357 B] | 730 nM | 
33 | c1ccc(Cc2ccc(OCCn3cncc4ncnc3-4)cc2)cc1 [357 D] | 40 nM | 
34 | c1ccc(Cc2ccc3c(c2)CC(Cn2cnc4ncccc42)O3)cc1 (stereo not shown) [359 B] | 10000 nM | 
35 | c1ccc(Cc2ccc3c(c2)CC(Cn2nnc4cccnc42)O3)cc1 (stereo not shown) [360 A] |  | inhibition at 100 µM: 36%
36 | c1ccc(Cc2ccc3c(c2)CC(Cn2nc4cccnc4n2)O3)cc1 (stereo not shown) [360 B] |  | inhibition at 100 µM: 19%
37 | c1ccc(Cc2ccc3c(c2)CC(Cn2nnc4ncccc42)O3)cc1 (stereo not shown) [360 C] | 5000 nM | 
38 | c1ccc(Cc2ccc3c(c2)CC(Cn2nc4ccncc4n2)O3)cc1 (stereo not shown) [361 A] |  | inhibition at 100 µM: 24%
39 | c1ccc(Cc2ccc3c(c2)CC(Cn2nnc4cnccc42)O3)cc1 (stereo not shown) [361 B] | 7000 nM | 
40 | O=C(O)c1ccc(-c2ccc(OCCN3CCCC3)cc2)cc1 [Example 63, 4-[4-[2-(1-pyrrolidinyl)ethoxy]phenyl]benzoic acid] |  | Recombinant Human LTA4 Hydrolase Assay, % at 25 μM: 40% at 25
41 | O=C(O)c1ccc(Oc2ccc(OCCN3CCCC3)cc2)cc1 [Example 64, 4-[4-[2-(1-pyrrolidinyl)ethoxy]phenoxy]benzoic acid] |  | Recombinant Human LTA4 Hydrolase Assay, % at 25 μM: 52% at 25
42 | c1ccc(Oc2ccc(OCCN3CCCC3)nc2)cc1 [Example 65, 5-phenoxy-2-[2-(1-pyrrolidinyl)ethoxy]pyridine] | 110 nM | 
43 | c1ccc(Oc2ccc(NCCN3CCCC3)cc2)cc1 [Example 71, N-(4-phenoxyphenyl)-1-pyrrolidine ethanamine, monohydrochloride] | 6500 nM | 
44 | Cc1cc(Cc2ccccc2)ccc1OCCN1CCCC1 [Example 117] | 3900 nM | 
45 | Cc1cc(OCCN2CCCC2)ccc1Cc1ccccc1 [Example 118] | 9000 nM | 
46 | COC(=O)c1cc(Cc2ccccc2)ccc1OCCN1CCCC1 [Example 123] | 7000 nM | 

Row | SMILES | IC50 | other results
47 | c1cc(OCCN2CCCC2)ccc1Cc1ccc2c(c1)OCO2 [Example 130] | 170 nM | 
48 | c1ccc2nc(Cc3ccc(OCCN4CCCC4)cc3)ccc2c1 [Example 131] | 4300 nM | 
49 | COc1ccc(Cc2ccc(OCCN3CCCC3)cc2)cc1F [Example 144] | 80 nM | 
50 | c1ccc2cc(COc3ccc(OCCN4CCCC4)cc3)ccc2c1 [Example 200] | 350 nM | 
51 | c1ccc2ncc(COc3ccc(OCCN4CCCC4)cc3)cc2c1 [Example 201] | 330 nM | 
52 | Cc1nc(COc2ccc(OCCN3CCCC3)cc2)cs1 [Example 202] |  | inhibition at 3 µM: 44%
53 | Brc1ccc(COc2ccc(OCCN3CCCC3)cc2)cc1 [Example 203] | 380 nM | 
54 | Clc1cccc(Cl)c1COc1ccc(OCCN2CCCC2)cc1 [Example 204] |  | Recombinant Human LTA4 Hydrolase Assay, % at 25 μM: 49% at 25
55 | Clc1cccc(COc2ccc(OCCN3CCCC3)cc2)c1 [Example 206] | 200 nM | 
56 | Cc1ccccc1COc1ccc(OCCN2CCCC2)cc1 [Example 210] |  | Recombinant Human LTA4 Hydrolase Assay, % at 25 μM: 4% at 25 μM
57 | Cc1ccc(COc2ccc(OCCN3CCCC3)cc2)cc1 [Example 212] | 3000 nM | 
58 | c1ccc2c(COc3ccc(OCCN4CCCC4)cc3)cccc2c1 [Example 214] | 2800 nM | 
59 | NC(=O)C1CCN(CCCOc2ccc(Cc3ccccc3)cc2)CC1 [Example 226] |  | inhibition at 100 µM: 4%
60 | O=C(OCc1ccccc1)[C@@H]1CCCN1CCCOc1ccc(Cc2ccccc2)cc1 [Example 228] |  | inhibition at 3 µM: 28%
61 | NC(=O)C1CCN(CCOc2ccc(Cc3nccs3)cc2)CC1 [Example 231] | 5000 nM | 
62 | COc1ccc(Cc2ccc(OCCN3CCC(C(N)=O)CC3)cc2)cc1 [Example 232] | 2100 nM | 
63 | NC(=O)C1CCN(CCOc2ccc(Cc3ccc(F)cc3)cc2)CC1 [Example 235] | 10000 nM | 
64 | NC(=O)C1CCCN(CCOc2ccc(Cc3ccccc3)cc2)C1 (stereo not shown) [Example 243] | 70 nM | 
65 | NC(=O)C1CCCN(CCCOc2ccc(Cc3ccccc3)cc2)C1 (stereo not shown) [Example 244] |  | inhibition at 100 µM: 15%
66 | CNC(=O)C1CCN(CCOc2ccc(Oc3ccccc3)cc2)CC1 [Example 255] | 280 nM | 

Row | SMILES | IC50 | other results
67 | CC(C)(C)OC(=O)C1CCCN1CCCOc1ccc(Cc2ccccc2)cc1 (stereo not shown) [Example 260] |  | inhibition at 3 µM: 14%
68 | O=C(CCNCCCOc1ccc(Cc2ccccc2)cc1)OCc1ccccc1 [Example 261] | 1250 nM | 
69 | CC(C)(C)OC(=O)CCNCCCOc1ccc(Cc2ccccc2)cc1 [Example 268] |  | inhibition at 3 µM: 53%
70 | CCOC(=O)CCNCCCCCOc1ccc(Cc2ccccc2)cc1 [Example 274] | 800 nM | 
71 | CC1(CN2CCC(C(N)=O)CC2)Cc2cc(Cc3ccccc3)ccc2O1 (stereo not shown) [Example 286] |  | inhibition at 100 µM: 41%
72 | c1ccc(Cc2cnc3c(c2)CC(CN2CCCC2)O3)cc1 (stereo not shown) [Example 287] | 330 nM | 
73 | c1ccc(Cc2ccc3c(c2)CCC(CN2CCCC2)O3)cc1 (stereo not shown) [Example 292] | 7 nM | 
74 | CCOC(=O)CC1CCN(CCCOc2ccc(Cc3ccccc3)cc2)CC1 [Example 302] | 3000 nM | 
75 | COC(=O)CC1CC2CC1N(CCOc1ccc(Cc3ccccc3)cc1)C2 (stereo not shown) [Example 307] | 440 nM | 
76 | CCOC(=O)C1CCN(CCOc2ccc(Cc3cccnc3)cc2)CC1 [Example 311] |  | inhibition at 100 µM: 44%
77 | CCOC(=O)C1CCN(CCOc2ccc(Cc3ccc(F)cc3)cc2)CC1 [Example 312] |  | inhibition at 100 µM: 46%
78 | COc1ccc(Cc2ccc(OCCN3CCC(C(N)=O)CC3)cc2)cc1F [Example 314] | 1500 nM | 
79 | O=C(CNCCOc1ccc(Cc2ccccc2)cc1)OCc1ccccc1 [Example 319] |  | inhibition at 100 µM: 47%
80 | COC(=O)CCN(C)CCCOc1ccc(Cc2ccc(F)cc2)cc1 [Example 332] | 14000 nM | 
81 | c1ccc(Oc2ccc(OCCCn3cnc4ccccc43)cc2)cc1 [Example 343] |  | inhibition at 3 µM: 40%
82 | c1ccc(Oc2ccc(OCCn3cnc4ccccc43)cc2)cc1 [Example 344] | 11100 nM | 
83 | c1ccc(COc2ccc(OCCn3cnc4ccccc43)cc2)cc1 [Example 345] |  | inhibition at 3 µM: 35%
84 | [O-][n+]1ccc2ncn(CCOc3ccc(Cc4ccccc4)cc3)c2c1 [Example 364] | 36 nM | 
85 | O=C(O)C1CCN(CCOc2ccc(Cc3ccccc3)s2)CC1 [Example 371] | 860 nM | 

From patent US6506876B1, “LTA4 hydrolase inhibitor pharmaceutical compositions and methods of use” (G.D. Searle & Co., priority 1994, dated 2003)
